These results are taken from patent publication US10894817B2, “Fatty acid modified urocortin-2 analogs for the treatment of diabetes and chronic kidney disease” (priority 2016, dated 2021).

A word on the EC50: it is the concentration giving half of the maximal effect. For orientation: AUC(0-inf) means the area under the concentration-time curve extrapolated to infinity. High values mean more exposure, low ones less exposure. By CL/F is commonly meant the apparent clearance, not corrected for the fraction that reaches the circulation. The Cmax is the maximum level reached in the sampled fluid or tissue. For orientation: Tmax means the time from dosing to the highest level. The half-life is the time in which the quantity being followed falls by half. The low end stands for rapid decline, the high end for slow decline.

Starred links: 1 amine or outer side, 2 acyl side, 3 side chain; linkers in the order of their positions; H or OH if unused. Non-standard residues stand in square brackets, D forms with d. Residues, ends and D or L forms follow the SMILES beside them. Groups on a side chain read outwards from the residue. *: point of attachment. C20 diacid = O=C(O)CCCCCCCCCCCCCCCCCCC(=O)*; C18 diacid = O=C(O)CCCCCCCCCCCCCCCCC(=O)*; γGlu = O=C(O)[C@H](CCC(=O)[*:2])N[*:1]; NMeI = CC[C@H](C)[C@H](NC)C(=O)O; AEEA = NCCOCCOCC(=O)O Bounds are passed on as bounds.

In one data set the target is T1, human CRHR2b (Homo sapiens, UniProt Q13324).
T1 construct: expressed in transfected cells; host or cells: Chinese Hamster Ovary (CHO) cells, transient transfection
T1 sequence (Q13324 1-438 isoform Q13324-2): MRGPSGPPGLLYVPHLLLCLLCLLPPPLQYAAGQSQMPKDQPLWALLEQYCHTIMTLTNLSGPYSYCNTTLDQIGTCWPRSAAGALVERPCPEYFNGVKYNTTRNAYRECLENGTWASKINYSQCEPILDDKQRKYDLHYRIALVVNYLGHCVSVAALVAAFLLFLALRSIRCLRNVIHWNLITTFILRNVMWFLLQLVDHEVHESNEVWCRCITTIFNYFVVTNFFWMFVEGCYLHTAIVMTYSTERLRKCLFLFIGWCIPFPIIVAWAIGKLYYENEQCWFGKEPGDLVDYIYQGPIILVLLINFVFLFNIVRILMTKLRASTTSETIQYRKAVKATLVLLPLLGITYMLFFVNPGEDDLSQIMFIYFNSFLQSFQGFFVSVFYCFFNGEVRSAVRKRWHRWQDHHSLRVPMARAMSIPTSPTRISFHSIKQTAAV
Briefly: human CRHR2b cell-based cAMP assay. The note with it: cAMP assay, CHO cells transfected with human CRHR2b; mean ± SEM of runs; read-out: hCRHR2b Average EC50. The gist of the method:
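ED50 values are means ± SEM over several runs, curve-fitted from cAMP in pmol, calibrated against unlabeled-cAMP standards. Detection was HTRF competition, ratio 665/620 nm, after 30 min agonist exposure at 37 °C.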
(cAMP levels reflect the balance of adenylyl cyclase and phosphodiesterase activity.)

Data set [1] is described as follows: Pharmacokinetics, single subcutaneous dose, mice. The note with it: male, CD-1, mouse, plasma, sc, 388 nmol/kg.
Experimental: Plasma concentrations of compounds were determined by LC/MS methods. Each method measured the intact compound; peptide plus linked time extension. For each assay, the compound and an analog, used as an internal standard (IS), were extracted from 100% mouse, rat or monkey plasma (25 μl) using acetonitrile. Two distinct layers were formed upon centrifugation with the compound and the IS located in the supernatant layer. An aliquot of the supernatant (80 μl) was transferred to a Thermo Protein Precipitation Plate with water (150 μl) and formic acid (25 μl) followed by mixing. A final 31% acetonitrile in 10% formic acid sample (10 μl) was loaded onto a Supelco Analytical Discovery BIO Wide Pore C5-3 column (5 cm×1 mm, 3 μm). The column effluent was directed into a Thermo Q-Exactive mass spectrometer for detection and quantitation.
Male CD-1 mice were administered a single subcutaneous dose (350, 386 or 388 nmol/kg) of a compound described herein in 20 mM Tris-HCl Tris Buffer (pH 7 or 8) at a volume of 0.05 or 0.06 mL/animal. Blood was collected at 6, 12, 24, 48, 72, 96, 120 and 168 hours postdose for pharmacokinetic characterization (101).
A further data set addresses T2, human CRHR1 (Homo sapiens, UniProt P34998).
T2 construct: which expresses endogenous human CRHR1; host or cells: Y79 human retinoblastoma cells
T2 sequence (P34998 24-415): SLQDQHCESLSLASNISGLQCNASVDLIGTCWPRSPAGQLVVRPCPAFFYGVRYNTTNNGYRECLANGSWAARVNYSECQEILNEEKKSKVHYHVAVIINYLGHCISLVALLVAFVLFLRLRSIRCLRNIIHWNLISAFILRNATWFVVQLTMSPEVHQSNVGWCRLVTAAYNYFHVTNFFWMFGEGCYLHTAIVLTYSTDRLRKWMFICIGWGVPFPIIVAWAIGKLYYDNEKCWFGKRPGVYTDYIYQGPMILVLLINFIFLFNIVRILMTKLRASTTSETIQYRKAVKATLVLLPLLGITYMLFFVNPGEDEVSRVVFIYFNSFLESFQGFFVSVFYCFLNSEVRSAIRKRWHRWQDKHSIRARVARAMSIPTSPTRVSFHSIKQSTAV
Briefly: human CRHR1 cell-based cAMP assay (Y79 cells). The note with it: Y79 cells with endogenous human CRHR1, mean ± SEM of runs, read-out: hCRHR1 Average EC50. As to the method:
CRHR agonistic activity is measured in a cell-based cAMP assay. Serial dilutions of the test peptides are made in assay buffer containing Hank's Balanced Salt Solution (HBSS, without phenol red) supplemented with 20 mM HEPES and 0.05% lactalbumin enzymatic hydrolysate (LAH) (“assay buffer”). The highest concentration that is used starts from 1 μM in the human CRHR2b, whereas 100 μM starting concentration is used in the human CRHR1 assay. A one to three dilution of the test peptides is used in both assays.
The human Retinoblastoma cell line Y79 (ATCC #HTB-18), which expresses endogenous human CRHR1, is used in the human CRHR1 assay. The cells are grown in RPMI 1640 (Hyclone, #SH30255) containing 20% fetal bovine serum and 10 mM HEPES, in suspension culture. Cells are centrifuged to remove the culture media and washed once in HBSS supplemented with 20 mM HEPES. The cells are resuspended in the assay buffer and 20,000 cells are used per treatment in the human CRHR1 assay.
The cells are dispensed into Costar 96-well black polystyrene half area EIA/RIA plates (Corning Incorporated, Corning, N.Y.) followed by the addition of the diluted peptides, each at a volume of 20 μL. The agonist induced cAMP levels are detected using a HTRF cAMP Dynamic 2 kit (CisBio, Bedford, Mass.). After incubation at 37° C. for 30 min, the assay is stopped by cell lysis via the addition of 20 μL of d2-labeled cAMP and followed by 20 μL of cryptate-labeled anti-cAMP antibody, as described by the manufacturer. Cellular cAMP (as a result of agonist stimulation) competes with the d2-labeled cAMP for binding to the antibody. HTRF detection is performed on an Envision plate reader (Perkin Elmer Life and Analytical Sciences, Waltham, Mass.) by measuring ratiometric emission at 620 and 665 nm after excitation at 320 nm.
The data are converted to picomoles of cAMP using a standard curve obtained from the same assay performed with varying concentrations of unlabeled cAMP. Percent of the maximum activation of the cells is calculated using converted picomole cAMP data by comparing to the amount of cAMP produced by 1 μM human UCN2 for the human CRHR2b or 1 μM human UCN1 for the human CRHR1 assay. The data are analyzed using a Curve Fitting Tool to calculate ED50. Numeric values shown below in Table 1 represent the mean of multiple runs (number of runs shown in parentheses) following the mean value±SEM.

As to `CC[C@H](C)[C@H](NC(C)=O)C(=O)N[C@H](C(=O)N[C@@H](CC(C)C)C(=O)N[C@@H](CO)C(=O)N[C@@H](CC(C)C)C(=O)N[C@@H](CC(=O)O)C(=O)N[C@H](C(=O)N1CCC[C@H]1C(=O)N[C@H](C(=O)NCC(=O)N[C@@H](CC(C)C)C(=O)N[C@@H](CC(C)C)C(=O)N[C@@H](CCC(N)=O)C(=O)N[C@H](C(=O)N[C@@H](CC(C)C)C(=O)N[C@@H](CC(C)C)C(=O)N[C@@H](CCC(=O)O)C(=O)N[C@@H](CCC(N)=O)C(=O)N[C@@H](CCC(=O)O)C(=O)N[C@@H](CCCCN)C(=O)N[C@@H](CCC(N)=O)C(=O)N[C@@H](CCC(=O)O)C(=O)N[C@@H](CCCCN)C(=O)N[C@@H](CCC(=O)O)C(=O)N[C@@H](CCCCN)C(=O)N[C@@H](CCC(N)=O)C(=O)N[C@@H](CCC(N)=O)C(=O)N[C@@H](C)C(=O)N[C@@H](CCCCNC(=O)COCCOCCNC(=O)COCCOCCNC(=O)CC[C@H](NC(=O)CC[C@H](NC(=O)CCCCCCCCCCCCCCCCC(=O)O)C(=O)O)C(=O)O)C(=O)N[C@H](C(=O)N[C@@H](CC(N)=O)C(=O)N[C@@H](C)C(=O)N[C@@H](CCC(N)=O)C(=O)N[C@H](C(=O)N[C@@H](CC(C)C)C(=O)N[C@@H](C)C(=O)N[C@@H](CCC(N)=O)C(=O)N[C@H](C(N)=O)C(C)C)[C@@H](C)CC)[C@@H](C)O)[C@@H](C)CC)[C@@H](C)CC)C(C)C)C(C)C` [Example 1] (Ac-IVLSLDVPIGLLQILLEQEKQEKEKQQAK([AEEA-AEEA-γGlu-γGlu-C18 diacid])TNAQILAQV-NH2), the EC50 at human CRHR2b was 2.44 ± 1.36 nM. Moreover, in data set [1], the AUC(0-inf) worked out at 32.2 µM·h, the CL/F is 0.202 mL/min/kg, the peak level (Cmax) was 1150 nM and the time to peak (Tmax) turned out to be 12 h. For the same molecule, in data set [1], the half-life was 16 h.
In the case of `CC[C@H](C)[C@H](NC)C(=O)N[C@H](C(=O)N[C@@H](CC(C)C)C(=O)N[C@@H](CO)C(=O)N[C@@H](CC(C)C)C(=O)N[C@@H](CC(=O)O)C(=O)N[C@H](C(=O)N1CCC[C@H]1C(=O)N[C@H](C(=O)NCC(=O)N[C@@H](CC(C)C)C(=O)N[C@@H](CC(C)C)C(=O)N[C@@H](CCC(N)=O)C(=O)N[C@H](C(=O)N[C@@H](CC(C)C)C(=O)N[C@@H](CC(C)C)C(=O)N[C@@H](CCC(=O)O)C(=O)N[C@@H](CCC(N)=O)C(=O)N[C@@H](CCC(=O)O)C(=O)N[C@@H](CCCCN)C(=O)N[C@@H](CCC(N)=O)C(=O)N[C@@H](CCC(=O)O)C(=O)N[C@@H](CCCCN)C(=O)N[C@@H](CCC(=O)O)C(=O)N[C@@H](CCCCN)C(=O)N[C@@H](CCC(N)=O)C(=O)N[C@@H](CCC(N)=O)C(=O)N[C@@H](C)C(=O)N[C@@H](CCCCNC(=O)COCCOCCNC(=O)COCCOCCNC(=O)CC[C@H](NC(=O)CC[C@H](NC(=O)CCCCCCCCCCCCCCCCCCC(=O)O)C(=O)O)C(=O)O)C(=O)N[C@H](C(=O)N[C@@H](CC(N)=O)C(=O)N[C@@H](C)C(=O)N[C@@H](CCC(=O)O)C(=O)N[C@H](C(=O)N[C@@H](CC(C)C)C(=O)N[C@@H](C)C(=O)N[C@@H](CCC(N)=O)C(=O)N[C@H](C(N)=O)C(C)C)[C@@H](C)CC)[C@@H](C)O)[C@@H](C)CC)[C@@H](C)CC)C(C)C)C(C)C` [Example 6] (H-[NMeI]VLSLDVPIGLLQILLEQEKQEKEKQQAK([AEEA-AEEA-γGlu-γGlu-C20 diacid])TNAEILAQV-NH2), the figures for the half-maximal effective concentration (EC50) on human CRHR2b and at human CRHR1 were 2.5 ± 1.06 nM and greater than 100000 nM, respectively.
